Measured values from patent US11319299B2, “Substituted carboxamides as inhibitors of WDR5 protein-protein binding” (PROPELLON THERAPEUTICS INC., priority 2016, dated 2022).

Target: WDR5 (Homo sapiens (Human), UniProt P61964)
Assay: Surface Plasmon Resonance (SPR) assay, KD and residence time
Format: binding
Details: surface plasmon resonance (SPR) assay; read-out: WDR5 binding affinity (KD)

Row | Kd [nM] | Compound
1 | 204 | COc1ccccc1C(=O)Nc1cc(-c2cnc(N3CCOCC3)nc2)c(F)cc1N1C[C@@H](C)N(C)[C@@H](C)C1 [Example 86, N-[4-fluoro-5-(2-morpholin-4-ylpyrimidin-5-yl)-2-[(3R,5S)-3,4,5-trimethylpiperazin-1-yl]phenyl]-2-methoxybenzamide]
2 | 8.21 | C[C@@H]1CN(c2cc(F)c(-c3cnc(N4CCOCC4)nc3)cc2NC(=O)c2ccc(F)cc2Cl)C[C@H](C)N1C [Example 87, 2-chloro-4-fluoro-N-[4-fluoro-5-(2-morpholin-4-ylpyrimidin-5-yl)-2-[(3R,5S)-3,4,5-trimethylpiperazin-1-yl]phenyl]benzamide]
3 | 24.1 | C[C@@H]1CN(c2cc(F)c(-c3cnc(N4CCOCC4)nc3)cc2NC(=O)c2cc(F)ccc2C(F)(F)F)C[C@H](C)N1C [Example 88, 5-fluoro-N-[4-fluoro-5-(2-morpholin-4-ylpyrimidin-5-yl)-2-[(3R,5S)-3,4,5-trimethylpiperazin-1-yl]phenyl]-2-(trifluoromethyl)benzamide]
4 | 33.8 | COc1cccc(C(=O)Nc2cc(-c3cnc(N4CCOCC4)nc3)c(F)cc2N2C[C@@H](C)N(C)[C@@H](C)C2)c1 [Example 89, N-[4-fluoro-5-(2-morpholin-4-ylpyrimidin-5-yl)-2-[(3R,5S)-3,4,5-trimethylpiperazin-1-yl]phenyl]-3-methoxybenzamide]
5 | 4.06 | C[C@@H]1CN(c2cc(F)c(C3=CCOCC3)cc2NC(=O)c2c[nH]c(=O)cc2C(F)(F)F)C[C@H](C)N1C [Example 94, N-[5-(3,6-dihydro-2H-pyran-4-yl)-4-fluoro-2-[(3R,5S)-3,4,5-trimethylpiperazin-1-yl]phenyl]-6-oxo-4-(trifluoromethyl)-1H-pyridine-3-carboxamide]
6 | 7.18 | C[C@@H]1CN(c2cc(F)c(C3=CCNCC3)cc2NC(=O)c2c[nH]c(=O)cc2C(F)(F)F)C[C@H](C)N1C [Example 95, N-[4-fluoro-2-[(3R,5S)-3,4,5-trimethylpiperazin-1-yl]-5-(1,2,3,6-tetrahydropyridin-4-yl)phenyl]-6-oxo-4-(trifluoromethyl)-1H-pyridine-3-carboxamide]
7 | 19.5 | C[C@@H]1CN(c2cc(F)c(-c3cc(Cl)c(O)c(C#N)c3)cc2NC(=O)c2c[nH]c(=O)cc2C(F)(F)F)C[C@H](C)N1C [Example 98, N-[5-(3-chloro-5-cyano-4-hydroxyphenyl)-4-fluoro-2-[(3R,5S)-3,4,5-trimethylpiperazin-1-yl]phenyl]-6-oxo-4-(trifluoromethyl)-1H-pyridine-3-carboxamide]
8 | 11.1 | C[C@@H]1CN(c2cc(F)c(-c3cnc(OCc4ccccc4)c(C#N)c3)cc2NC(=O)c2c[nH]c(=O)cc2C(F)(F)F)C[C@H](C)N1C [Example 99, N-[5-(5-cyano-6-phenylmethoxypyridin-3-yl)-4-fluoro-2-[(3R,5S)-3,4,5-trimethylpiperazin-1-yl]phenyl]-6-oxo-4-(trifluoromethyl)-1H-pyridine-3-carboxamide]
9 | 0.508 | C[C@@H]1CN(c2cc(F)c(-c3ccc(C#N)cc3)cc2NC(=O)c2c[nH]c(=O)cc2C(F)(F)F)C[C@H](C)N1C [Example 100, N-[5-(4-cyanophenyl)-4-fluoro-2-[(3R,5S)-3,4,5-trimethylpiperazin-1-yl]phenyl]-6-oxo-4-(trifluoromethyl)-1H-pyridine-3-carboxamide]
10 | 0.32 | C[C@@H]1CN(c2cc(F)c(-c3ccc(OC4CCOCC4)nc3)cc2NC(=O)c2c[nH]c(=O)cc2C(F)(F)F)C[C@H](C)N1C [Example 101, N-[4-fluoro-5-[6-(oxan-4-yloxy)pyridin-3-yl]-2-[(3R,5S)-3,4,5-trimethylpiperazin-1-yl]phenyl]-6-oxo-4-(trifluoromethyl)-1H-pyridine-3-carboxamide]
11 | 2.08 | C[C@@H]1CN(c2cc(F)c(-c3cccc(C#N)c3)cc2NC(=O)c2c[nH]c(=O)cc2C(F)(F)F)C[C@H](C)N1C [Example 102, N-[5-(3-cyanophenyl)-4-fluoro-2-[(3R,5S)-3,4,5-trimethylpiperazin-1-yl]phenyl]-6-oxo-4-(trifluoromethyl)-1H-pyridine-3-carboxamide]
12 | 0.168 | C[C@@H]1CN(c2cc(F)c(-c3cnc(N(C)C)nc3)cc2NC(=O)c2c[nH]c(=O)cc2C(F)(F)F)C[C@H](C)N1C [Example 103, N-[5-[2-(dimethylamino)pyrimidin-5-yl]-4-fluoro-2-[(3R,5S)-3,4,5-trimethylpiperazin-1-yl]phenyl]-6-oxo-4-(trifluoromethyl)-1H-pyridine-3-carboxamide]
13 | 2.41 | COc1cc(-c2cc(NC(=O)c3c[nH]c(=O)cc3C(F)(F)F)c(N3C[C@@H](C)N(C)[C@@H](C)C3)cc2F)cnc1OC [Example 104, N-[5-(5,6-dimethoxypyridin-3-yl)-4-fluoro-2-[(3R,5S)-3,4,5-trimethylpiperazin-1-yl]phenyl]-6-oxo-4-(trifluoromethyl)-1H-pyridine-3-carboxamide]
14 | 466 | C[C@@H]1CN(c2cc(F)c(-c3cnc(N4CCOCC4)nc3)cc2NC(=O)c2cccc3c2OCO3)C[C@H](C)N1C [Example 105, N-[4-fluoro-5-(2-morpholin-4-ylpyrimidin-5-yl)-2-[(3R,5S)-3,4,5-trimethylpiperazin-1-yl]phenyl]-1,3-benzodioxole-4-carboxamide]
15 | 5400 | COc1ccc(C(=O)Nc2cc(-c3cnc(N4CCOCC4)nc3)c(F)cc2N2C[C@@H](C)N(C)[C@@H](C)C2)cc1 [Example 106, N-[4-fluoro-5-(2-morpholin-4-ylpyrimidin-5-yl)-2-[(3R,5S)-3,4,5-trimethylpiperazin-1-yl]phenyl]-4-methoxybenzamide]
16 | 137 | C[C@@H]1CN(c2cc(F)c(-c3cnc(N4CCOCC4)nc3)cc2NC(=O)c2ccc(F)cc2)C[C@H](C)N1C [Example 107, 4-fluoro-N-[4-fluoro-5-(2-morpholin-4-ylpyrimidin-5-yl)-2-[(3R,5S)-3,4,5-trimethylpiperazin-1-yl]phenyl]benzamide]
17 | 175 | C[C@@H]1CN(c2cc(F)c(-c3cnc(N4CCOCC4)nc3)cc2NC(=O)c2ccccc2Cl)C[C@H](C)N1C [Example 109, 2-chloro-N-[4-fluoro-5-(2-morpholin-4-ylpyrimidin-5-yl)-2-[(3R,5S)-3,4,5-trimethylpiperazin-1-yl]phenyl]benzamide]
18 | 1730 | COc1cccc(C(=O)Nc2cc(-c3cnc(N4CCOCC4)nc3)c(F)cc2N2C[C@@H](C)N(C)[C@@H](C)C2)c1F [Example 110, 2-fluoro-N-[4-fluoro-5-(2-morpholin-4-ylpyrimidin-5-yl)-2-[(3R,5S)-3,4,5-trimethylpiperazin-1-yl]phenyl]-3-methoxybenzamide]
19 | 70.6 | C[C@@H]1CN(c2cc(F)c(-c3cnc(N4CCOCC4)nc3)cc2NC(=O)c2ccc(F)c(F)c2)C[C@H](C)N1C [Example 111, 3,4-difluoro-N-[4-fluoro-5-(2-morpholin-4-ylpyrimidin-5-yl)-2-[(3R,5S)-3,4,5-trimethylpiperazin-1-yl]phenyl]benzamide]
20 | 2.44 | COc1ccc(-c2cc(NC(=O)c3c[nH]c(=O)cc3C(F)(F)F)c(N3C[C@@H](C)N(C)[C@@H](C)C3)cc2F)cc1 [Example 112, N-[4-fluoro-5-(4-methoxyphenyl)-2-[(3R,5S)-3,4,5-trimethylpiperazin-1-yl]phenyl]-6-oxo-4-(trifluoromethyl)-1H-pyridine-3-carboxamide]
21 | 0.858 | C[C@@H]1CN(c2cc(F)c(-c3ccc(OCC4CC4)cc3)cc2NC(=O)c2c[nH]c(=O)cc2C(F)(F)F)C[C@H](C)N1C [Example 113, N-[5-[4-(cyclopropylmethoxy)phenyl]-4-fluoro-2-[(3R,5S)-3,4,5-trimethylpiperazin-1-yl]phenyl]-6-oxo-4-(trifluoromethyl)-1H-pyridine-3-carboxamide]
22 | 4.06 | C[C@@H]1CN(c2cc(F)c(-c3ccc(N4CCCC4)cc3)cc2NC(=O)c2c[nH]c(=O)cc2C(F)(F)F)C[C@H](C)N1C [Example 114, N-[4-fluoro-5-(4-pyrrolidin-1-ylphenyl)-2-[(3R,5S)-3,4,5-trimethylpiperazin-1-yl]phenyl]-6-oxo-4-(trifluoromethyl)-1H-pyridine-3-carboxamide]
23 | > 200 | CC(=O)Nc1cccc(C(=O)Nc2cc(-c3cnc(N4CCOCC4)nc3)c(F)cc2N2C[C@@H](C)N(C)[C@@H](C)C2)c1 [Example 115, 3-acetamido-N-[4-fluoro-5-(2-morpholin-4-ylpyrimidin-5-yl)-2-[(3R,5S)-3,4,5-trimethylpiperazin-1-yl]phenyl]benzamide]
24 | 4.53 | C[C@@H]1CN(c2cc(F)c(-c3cccc(CN(C)C4COC4)c3)cc2NC(=O)c2c[nH]c(=O)cc2C(F)(F)F)C[C@H](C)N1C [Example 118, N-[4-fluoro-5-[3-[[methyl(oxetan-3-yl)amino]methyl]phenyl]-2-[(3R,5S)-3,4,5-trimethylpiperazin-1-yl]phenyl]-6-oxo-4-(trifluoromethyl)-1H-pyridine-3-carboxamide]
25 | 5.12 | C[C@@H]1CN(c2cc(F)c(-c3cccc(CN4CCC(F)CC4)c3)cc2NC(=O)c2c[nH]c(=O)cc2C(F)(F)F)C[C@H](C)N1C [Example 119, N-[4-fluoro-5-[3-[(4-fluoropiperidin-1-yl)methyl]phenyl]-2-[(3R,5S)-3,4,5-trimethylpiperazin-1-yl]phenyl]-6-oxo-4-(trifluoromethyl)-1H-pyridine-3-carboxamide]
26 | > 200 | O=C(Nc1cc(-c2cnc(N3CCOCC3)nc2)c(F)cc1N1CCN2CCOCC2C1)c1c[nH]c(=O)cc1C(F)(F)F (stereo not drawn) [Example 120, N-[2-(3,4,6,7,9,9a-hexahydro-1H-pyrazino[2,1-c][1,4]oxazin-8-yl)-4-fluoro-5-(2-morpholin-4-ylpyrimidin-5-yl)phenyl]-6-oxo-4-(trifluoromethyl)-1H-pyridine-3-carboxamide]
27 | 9.88 | C[C@@H]1CN(c2cc(F)c(-c3cnc(O)c(C#N)c3)cc2NC(=O)c2c[nH]c(=O)cc2C(F)(F)F)C[C@H](C)N1C [Example 123, N-[5-(5-cyano-6-hydroxypyridin-3-yl)-4-fluoro-2-[(3R,5S)-3,4,5-trimethylpiperazin-1-yl]phenyl]-6-oxo-4-(trifluoromethyl)-1H-pyridine-3-carboxamide]
